# Results: US20050202407A1, “Methods and assays for screening anti-neoplastic therapeutic agents” (Baylor College of Medicine, priority 2003, published 2005)
# Key:
# LNCaP cells = assay: Viability assay with MEK inhibitors
# Protocol: (§1) Cells were infected or transfected in six-well plates. Forty-eight hours after infection or transfection, cells were treated with 1 μM Tg for the time indicated. At the end of the treatments MTS assays were performed using CellTiter 96 aqueous one solution reagent from Promega by a modified version of the procedure. Briefly 300 μl of MTS solution was added to each well and incubated for 1 h at 37° C. One milliliter of reaction or medium mix was transferred from each well to an Eppendorf tube and then centrifuged in a microcentrifuge for 5 min at 4,000 rpm (˜3,000×g). One hundred microliters of supernatant was transferred to each well of a 96-well plate, and the relative viability was determined by the measurement of absorbance at 490 nm in a 96-well plate reader. […] Apoptotic morphology was analyzed with phase-contrast fluorescence microscopy after incubation with 0.2 μg of 4′6′-dismidino-2-phenylindole (DAPI) per ml. The activities of caspases in the cell lysates were analyzed by Western blotting using specific antibodies recognizing procaspases or cleaved forms of caspases, followed by quantitative intensity analysis using software (GelExpert; Nucleo Vision) and normalized to the intensity of β-actin in the same sample.
# ERK1/2 = assay: Phosphorylated ERK1/2 by Western blot; type: cell-based, human; details: Adcav-1- or AdRSV-infected cells
# Protocol: Unless specifically indicated, immunoprecipitation (IP) was performed as follows. Cells were washed with ice-cold phosphate-buffered saline (PBS), lysed on the plates by incubation for 10 min on ice with IP lysis buffer, which consists of 20 mM Tris-HCl (pH 7.5), 150 mM NaCl, 1 mM EDTA, 1 mM EGTA, 1% Triton X-100, 1 mM β-glycerophosphate, 60 mM octylglucoside and protease inhibitor cocktail. Cells were then scraped off the dish, transferred to microcentrifuge tubes, placed on ice for 20 min, and centrifuged for 10 min at high speed in a microcentrifuge at 4° C. The supernatant (cell lysate) was transferred to a fresh tube and frozen at −80° C. until use. Typically, 500 μg of cell lysate proteins were diluted to 500 μl with IP lysis buffer and precleared by incubation with 3 μg of the corresponding immunoglobulin G (IgG) from […] for 30 min at 4° C. on a rocker, followed by the addition of 50 μl of IP lysis buffer-prewashed protein A or G plus agarose and incubation for another 1 h. The cleared cell lysate was incubated with 3 μg of specific antibody or the corresponding IgG overnight at 4° C. on a rocker. […] For regular Western blot analysis, protein concentration in cell lysates was determined by the Bio-Rad protein assay, and 30 μg of protein from each sample was loaded on the gel. β-Actin served as a loading control.
# PI3-K = PI3-K activity assay (TLC); type: cell-based, human; details: 1 μM Tg for 48 h; cav-1-expressing and control LNCaP cells
# Protocol: Cell lysates were prepared as described above for the Akt activity assay. PI3-K activity assays were performed as described below. Briefly, 500 μg of cell lysate proteins were immunoprecipitated with monoclonal antibody against phosphotyrosine for 3 h at 4° C. with gentle rocking, and the beads were washed twice with lysis buffer and twice with PI3-K assay buffer (20 mM Tris [pH 7.5], 100 mM NaCl, 0.5 mM EGTA, 20 mM MgCl2). PI was dissolved in chloroform (5 mg/ml) and diluted to 0.5 mg/ml with PI3-K assay buffer, followed by sonication. […] Five microliters of washed chloroform phase from each sample was loaded on a TLC plate and analyzed by ascending chromatography in chloroform-methanol-29.5% ammonium hydroxide-water (90:90:8:19), followed by autoradiography.
# Protein expression levels and kinase activities of PI3-K, PDK1, and Akt were determined in cav-1-expressing or vector control LNCaP cells before and after treatment with 1 μM Tg for 48 h (+Tg): (A) PI3-K kinase assay by TLC (top gel); (B) PDK1 IP kinase assay; (C) Akt IP kinase assay using recombinant GSK3 as a substrate. Total protein and phosphorylated protein (indicated by P-prefix before protein name) of each kinase were analyzed and presented in each blot. β-Actin served as a loading control. […]
# PDK1 = PDK1 IP kinase assay; type: cell-based, human; details: 1 μM Tg for 48 h; LNCaP cells
# Protocol: Cell lysates were prepared as described above. PDK1 activity assay was performed according to the manufacturer's protocol (Upstate Biotechnology). Radioactivity that remained on the P81 paper was read with TopCount (Packard).
# Protein expression levels and kinase activities of PI3-K, PDK1, and Akt were determined in cav-1-expressing or vector control LNCaP cells before and after treatment with 1 μM Tg for 48 h (+Tg): (A) PI3-K kinase assay by TLC (top gel); (B) PDK1 IP kinase assay; (C) Akt IP kinase assay using recombinant GSK3 as a substrate. Total protein and phosphorylated protein (indicated by P-prefix before protein name) of each kinase were analyzed and presented in each blot. β-Actin served as a loading control. There was no difference in protein expression levels for PI3-K in cav-1-expressing cells to control vector-infected cells (FIG. 2A). Although PI3-K activity was reduced by Tg treatment, no difference was found between cav-1-expressing and control cells (FIG. 2A). Tg treatment also led to reduced PDK1 activity; however, compared with control RSV-infected cells, PDK1 activity was approximately 17% higher in cav-1-expressing cells and approximately 30% higher in Tg-treated cav-1-expressing cells (FIG. 2B). In the same lysates, there was no difference in PDK1 protein expression (FIG. 2B).
# [1] = Viability assay with MEK inhibitors; details: human
# Protocol: as §1
# PP1 (catalytic subunit) = target: T1, PP1 (catalytic subunit) (Oryctolagus cuniculus, UniProt P62139); assay: In vitro malachite green phosphatase assay with purified cav-1; type: biochemical, rabbit; details: 100 ng purified cav-1, 0.02 U PP1
# T1 construct: purchased New England BioLabs
# Protocol: (§2) PP1 (catalytic subunit) (0.02 U) or PP2A (core enzyme) (0.01 U) was incubated with or without 100 ng of purified cav-1 protein for 1 h at 4° C. Phosphatase assay buffer and a phosphopeptide (K-R-pT-1-R-R) were added to a final volume of 50 μl. Reactions were initialed by the addition of 200 μM phosphopeptide, and reaction mixtures were incubated at room temperature for 10 min. Reactions were terminated by the addition of 100 μl of malachite green solution. Activities of PP1 and PP2A were determined by the measurement of absorbance at 620 nm.
# (§3) To determine whether the effects of cav-1 on PP1 and PP2A are direct and whether cav-1 interacts with and inhibits PP1 and PP2A in vitro, in vitro IP experiments were performed using purified His-V5-tagged human cav-1, PP1 (C subunit), and PP2A (core enzyme). […] The results of in vitro phosphatase assays indicate that the addition of cav-1 reduced PP1 and PP2A activities by approximately 30% under these basic conditions (FIG. 3F). Briefly, cells were treated with purified cav-1 (¢) or not treated with purified cav-1 (£) and relative activity was determined by measuring the optical density at 620 nm (OD620).
# PP2A (core enzyme) = target: T2, PP2A (core enzyme) (Homo sapiens, UniProt P67775); assay: as above; type: biochemical; details: 100 ng purified cav-1, 0.01 U PP2A
# T2 construct: purchased Upstate Biotechnology
# Protocol: as §2, §3
# T2 sequence (P67775 whole entry): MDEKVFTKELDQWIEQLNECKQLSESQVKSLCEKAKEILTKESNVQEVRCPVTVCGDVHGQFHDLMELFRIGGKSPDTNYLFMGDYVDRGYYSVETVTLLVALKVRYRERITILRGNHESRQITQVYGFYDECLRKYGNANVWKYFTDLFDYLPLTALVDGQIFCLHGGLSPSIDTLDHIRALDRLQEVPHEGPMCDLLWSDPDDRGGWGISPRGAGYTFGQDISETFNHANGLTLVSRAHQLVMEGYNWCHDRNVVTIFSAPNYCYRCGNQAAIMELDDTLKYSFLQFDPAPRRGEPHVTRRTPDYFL
# T2 sequence (P30153 2-589 partner limits assumed): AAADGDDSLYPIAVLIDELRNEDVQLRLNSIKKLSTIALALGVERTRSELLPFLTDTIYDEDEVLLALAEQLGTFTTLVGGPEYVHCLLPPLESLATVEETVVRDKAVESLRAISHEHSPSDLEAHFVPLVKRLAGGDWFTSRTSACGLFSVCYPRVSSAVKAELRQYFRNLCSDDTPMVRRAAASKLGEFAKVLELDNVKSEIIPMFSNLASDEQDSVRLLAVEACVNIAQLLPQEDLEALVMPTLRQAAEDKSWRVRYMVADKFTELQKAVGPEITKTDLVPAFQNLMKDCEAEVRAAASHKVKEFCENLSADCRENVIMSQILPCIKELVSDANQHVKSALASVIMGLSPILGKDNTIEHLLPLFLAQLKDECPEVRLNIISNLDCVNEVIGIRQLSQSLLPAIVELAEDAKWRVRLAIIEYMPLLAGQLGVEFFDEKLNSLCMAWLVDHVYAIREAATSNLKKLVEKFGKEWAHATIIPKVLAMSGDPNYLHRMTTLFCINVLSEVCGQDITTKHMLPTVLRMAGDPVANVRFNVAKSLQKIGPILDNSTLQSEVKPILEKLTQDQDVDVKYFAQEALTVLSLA
# T1 sequence (P62139 whole entry): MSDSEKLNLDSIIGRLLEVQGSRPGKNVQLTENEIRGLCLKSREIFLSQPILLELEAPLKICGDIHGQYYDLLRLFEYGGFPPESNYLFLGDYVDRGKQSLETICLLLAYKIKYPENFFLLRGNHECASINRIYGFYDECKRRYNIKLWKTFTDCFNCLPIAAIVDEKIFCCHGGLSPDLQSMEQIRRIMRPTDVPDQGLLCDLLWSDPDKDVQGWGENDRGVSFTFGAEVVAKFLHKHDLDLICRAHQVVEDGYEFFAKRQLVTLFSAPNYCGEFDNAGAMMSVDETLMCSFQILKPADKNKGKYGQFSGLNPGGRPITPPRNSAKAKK
molecule,measurement,setting,value
COc1cccc(-c2cc(=O)c3ccccc3o2)c1N [PD98059],reduction of cell viability,LNCaP cells,~20%
same,phosphorylated ERK1/2,ERK1/2,reduction
"C/C=C(/C)C(=O)O[C@H]1C(C)=C2[C@H]([C@@H]1OC(=O)CCCCCCC)[C@@](C)(OC(C)=O)C[C@H](OC(=O)CCC)[C@@]1(O)[C@H]2OC(=O)[C@@]1(C)O [Tg, thapsigargin]",PI3-K activity,PI3-K,reduced
same,PDK1 activity,PDK1,reduced
N#CC(=C(/N)Sc1ccccc1N)/C(C#N)=C(\N)Sc1ccccc1N [U0126],cytotoxicity,[1],~15%
same,phosphorylated ERK1/2,ERK1/2,reduction
"purified cav-1: purified His-V5-tagged human cav-1 protein (protein, UniProt Q03135 2-178, looked up, His-V5 tag, purified His-V5-tagged human cav-1 protein) Caveolin-1: SGGKYVDSEGHLYTVPIREQGNIYKPNNKAMADELSEKQVYDAHTKEIDLVNRDPKHLNDDVVKIDFEDVIAEPEGTHSFDGIWKASFTTFTVTKYWFYRLLSALFGIPMALIWGIYFAILSFLHIWAVVPCIKSFLIEIQCISRVYSIYVHTVCDPLFEAVGKIFSNVRINLQKEI",reduction of PP1 activity,PP1 (catalytic subunit),approximately 30%
same,reduction of PP2A activity,PP2A (core enzyme),approximately 30%
